Reference: ChEMBL document CHEMBL1131808, “Potent immunosuppressive C32-O-arylethyl ether derivatives of ascomycin with reduced toxicity” (Bioorg Med Chem Lett, 1999)
The source made the active and inactive calls. The calls are words filed in the database; no cut-off is given here.

How the values were obtained:
[1] = target: Peptidyl-prolyl cis-trans isomerase FKBP1A (Homo sapiens, UniProt P62942); experiment: Effective concentration against FK506 binding protein 12 using [3H]-dihydro FK-506
Mus musculus [2] = experiment: In vivo immunosuppression in murine models by splenic T-cell proliferation assay after intravenous administration; assay type: functional
Mus musculus [3] = experiment: In vivo immunosuppression in murine models by splenic T-cell proliferation assay after peroral administration; assay type: functional; settings: po
Mus musculus [4] = organism: Mus musculus; experiment: The compound was tested for its inhibitory activity against T-cell proliferation using murine splenic T-cells; assay type: functional
Rattus norvegicus [5] = experiment: Cytotoxicity was determined by hypothermia induction after intravenous administration in rat; assay type: functional
Rattus norvegicus [6] = experiment: The compound was tested for % reduction of nephrotoxicity in rat after intravenous administration at dose 20 mg/kg; assay type: functional
[7] = Ratio of hypothermia (ED50) by Murine (ED50) in vivo; assay type: functional
Rattus norvegicus [8] = experiment: Tested for nephrotoxicity in Dawley rats and measured for blood urea nitrogen levels after intravenous administration at dose 5 mg/kg; assay type: functional
Rattus norvegicus [9] = experiment: Tested for nephrotoxicity in Dawley rats and measured for plasma drug level after intravenous administration at dose 10 mg/kg; assay type: functional
Rattus norvegicus [10] = experiment: Tested for nephrotoxicity in Dawley rats and measured for plasma drug level after intravenous administration at dose 2.5 mg/kg; assay type: functional
Rattus norvegicus [11] = experiment: Tested for nephrotoxicity in Dawley rats and measured for plasma drug level after intravenous administration at dose 5 mg/kg; assay type: functional
Rattus norvegicus [12] = experiment: Tested for nephrotoxicity in Dawley rats and measured for blood urea nitrogen levels after intravenous administration at dose 10 mg/kg; assay type: functional
Rattus norvegicus [13] = experiment: Tested for nephrotoxicity in Dawley rats and measured for blood urea nitrogen levels after intravenous administration at dose 2.5 mg/kg; assay type: functional
Rattus norvegicus [14] = experiment: The compound was tested for % reduction of nephrotoxicity in rat after intravenous administration at dose 1.7 mg/kg; assay type: functional
Rattus norvegicus [15] = experiment: The compound was tested for % reduction of nephrotoxicity in rat after intravenous administration at dose 10 mg/kg; assay type: functional
Rattus norvegicus [16] = experiment: The compound was tested for % reduction of nephrotoxicity in rat after intravenous administration at dose 5 mg/kg; assay type: functional
Rattus norvegicus [17] = experiment: The compound was tested for % reduction of nephrotoxicity in rat after intravenous administration at dose 20 mg/kg; NE denotes no effect; assay type: functional, organism-based; set-up: dose 20 mg/kg
Rattus norvegicus [18] = experiment: Tested for nephrotoxicity in Dawley rats and measured for plasma drug level after intravenous administration at dose 20 mg/kg; assay type: functional
Rattus norvegicus [19] = experiment: Tested for nephrotoxicity in Dawley rats and measured for plasma drug level after intravenous administration at dose 40 mg/kg; assay type: functional
Rattus norvegicus [20] = experiment: Tested for nephrotoxicity in Dawley rats and measured for blood urea nitrogen levels after intravenous administration at dose 20 mg/kg; assay type: functional
Rattus norvegicus [21] = experiment: Tested for nephrotoxicity in Dawley rats and measured for blood urea nitrogen levels after intravenous administration at dose 40 mg/kg; assay type: functional

Chain of Peptidyl-prolyl cis-trans isomerase FKBP1A (P62942 whole entry): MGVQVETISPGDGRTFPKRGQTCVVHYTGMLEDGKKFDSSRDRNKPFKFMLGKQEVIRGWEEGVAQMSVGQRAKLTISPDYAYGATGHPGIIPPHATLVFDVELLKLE

| SMILES | EC50 [1] [nM] | ED50 (Mus musculus [2]) [mg/kg] | ED50 (Mus musculus [3]) [mg/kg] | IC50 (Mus musculus [4]) [nM] | ED50 (Rattus norvegicus [5]) [mg/kg] | Therapeutic index [7] | also measured |
| --- | --- | --- | --- | --- | --- | --- | --- |
| CC[C@@H]1/C=C(\C)C[C@H](C)C[C@H](OC)[C@H]2O[C@@](O)(C(=O)C(=O)N3CCCC[C@H]3C(=O)O[C@H](/C(C)=C/C3CC[C@@H](OC[C@H](O)c4ccc5ccccc5c4)[C@H](OC)C3)[C@H](C)[C@H](O)CC1=O)[C@H](C)C[C@@H]2OC (stereo partly specified) | 18 | 0.38 | 3.4 | 0.34 | 14.2 | 37 | Reduction (Rattus norvegicus [6]): 40% |
| C=CC[C@@H]1/C=C(\C)C[C@H](C)C[C@H](OC)[C@H]2O[C@@](O)(C(=O)C(=O)N3CCCC[C@H]3C(=O)O[C@H](/C(C)=C/[C@@H]3CC[C@@H](O)[C@H](OC)C3)[C@H](C)C(O)CC1=O)[C@H](C)C[C@@H]2OC (single isomer, unassigned) [TACROLIMUS ANHYDROUS] |  | 0.22 | 2.6 | 0.2 | 3.7 |  | Nephrotoxicity (Rattus norvegicus [8]): 21 mg/dL; Nephrotoxicity (Rattus norvegicus [9]): 611 ng/mL; Nephrotoxicity (Rattus norvegicus [10]): 13 ng/mL; Nephrotoxicity (Rattus norvegicus [11]): 45 ng/mL; Nephrotoxicity (Rattus norvegicus [12]): 26 mg/dL; Nephrotoxicity (Rattus norvegicus [13]): 18.1 mg/dL; Reduction (Rattus norvegicus [14]): 45% |
| CC[C@@H]1/C=C(\C)C[C@H](C)C[C@H](OC)[C@H]2O[C@@](O)(C(=O)C(=O)N3CCCC[C@H]3C(=O)O[C@H](/C(C)=C/C3CC[C@@H](OC[C@H](O)c4cc(C)cc(C)c4)[C@H](OC)C3)[C@H](C)[C@H](O)CC1=O)[C@H](C)C[C@@H]2OC (stereo partly specified) | 9 | 0.49 | 4.8 | 0.34 | 7.25 | 15 | Reduction (Rattus norvegicus [15]): 48% |
| CC[C@@H]1/C=C(\C)C[C@H](C)C[C@H](OC)[C@H]2O[C@@](O)(C(=O)C(=O)N3CCCC[C@H]3C(=O)O[C@H](/C(C)=C/C3CC[C@@H](OC[C@H](O)c4ccc(F)c(F)c4)[C@H](OC)C3)[C@H](C)[C@H](O)CC1=O)[C@H](C)C[C@@H]2OC (stereo partly specified) | 13.6 | 0.19 | 3.9 | 0.11 | 13.7 | 72 | Reduction (Rattus norvegicus [16]): 54% |
| CC[C@@H]1/C=C(\C)C[C@H](C)C[C@H](OC)[C@H]2O[C@@](O)(C(=O)C(=O)N3CCCC[C@H]3C(=O)O[C@H](/C(C)=C/C3CC[C@@H](OC[C@@H](O)c4cc5ccccc5s4)[C@H](OC)C3)[C@H](C)[C@H](O)CC1=O)[C@H](C)C[C@@H]2OC (stereo partly specified) | 11.2 | 0.75 | 6.4 | 0.39 | 14.8 | 20 | Reduction (Rattus norvegicus [16]): 32% |
| CC[C@@H]1/C=C(\C)C[C@H](C)C[C@H](OC)[C@H]2O[C@@](O)(C(=O)C(=O)N3CCCC[C@H]3C(=O)O[C@H](/C(C)=C/C3CC[C@@H](OC[C@@H](O)c4cccc(C(F)(F)F)c4)[C@H](OC)C3)[C@H](C)[C@H](O)CC1=O)[C@H](C)C[C@@H]2OC (stereo partly specified) | 45 | 0.31 | 3.7 | 0.38 | 12.8 | 41 | Reduction (Rattus norvegicus [17]): inactive |
| CC[C@@H]1/C=C(\C)C[C@H](C)C[C@H](OC)[C@H]2O[C@@](O)(C(=O)C(=O)N3CCCC[C@H]3C(=O)O[C@H](/C(C)=C/C3CC[C@@H](OC[C@@H](O)c4ccc5ccccc5c4)[C@H](OC)C3)[C@H](C)[C@H](O)CC1=O)[C@H](C)C[C@@H]2OC (stereo partly specified) | 21.1 | 0.38 | 3.7 | 0.33 | 21.6 | 57 | Nephrotoxicity (Rattus norvegicus [8]): 16.3 mg/dL; Nephrotoxicity (Rattus norvegicus [9]): 478 ng/mL; Nephrotoxicity (Rattus norvegicus [18]): 1897 ng/mL; Nephrotoxicity (Rattus norvegicus [19]): 3120 ng/mL; Nephrotoxicity (Rattus norvegicus [11]): 239 ng/mL; Nephrotoxicity (Rattus norvegicus [12]): 17.7 mg/dL; Nephrotoxicity (Rattus norvegicus [20]): 24.7 mg/dL; Nephrotoxicity (Rattus norvegicus [21]): 39.3 mg/dL; Reduction (Rattus norvegicus [6]): 41% |
| CC[C@@H]1/C=C(\C)C[C@H](C)C[C@H](OC)[C@H]2O[C@@](O)(C(=O)C(=O)N3CCCC[C@H]3C(=O)O[C@H](/C(C)=C/C3CC[C@@H](OC[C@H](O)c4cc5ccccc5s4)[C@H](OC)C3)[C@H](C)[C@H](O)CC1=O)[C@H](C)C[C@@H]2OC (stereo partly specified) | 12 | 0.53 | 5.6 | 0.47 |  |  |  |
| CC[C@@H]1/C=C(\C)C[C@H](C)C[C@H](OC)[C@H]2O[C@@](O)(C(=O)C(=O)N3CCCC[C@H]3C(=O)O[C@H](/C(C)=C/C3CC[C@@H](OC[C@H](O)c4cccc(C(F)(F)F)c4)[C@H](OC)C3)[C@H](C)[C@H](O)CC1=O)[C@H](C)C[C@@H]2OC (stereo partly specified) | 45 | 0.29 | 5 | 0.38 | 13.7 | 47 | Reduction (Rattus norvegicus [16]): 51% |
| CC[C@@H]1/C=C(\C)C[C@H](C)C[C@H](OC)[C@H]2O[C@@](O)(C(=O)C(=O)N3CCCC[C@H]3C(=O)O[C@H](/C(C)=C/C3CC[C@@H](OC[C@@H](O)c4cc(C)cc(C)c4)[C@H](OC)C3)[C@H](C)[C@H](O)CC1=O)[C@H](C)C[C@@H]2OC (stereo partly specified) | 7.5 | 0.45 | 4.5 | 0.23 | 10.3 | 23 | Reduction (Rattus norvegicus [17]): inactive |
| CC[C@@H]1/C=C(\C)C[C@H](C)C[C@H](OC)[C@H]2O[C@@](O)(C(=O)C(=O)N3CCCC[C@H]3C(=O)O[C@H](/C(C)=C/C3CC[C@@H](OC[C@@H](O)c4ccc(F)c(F)c4)[C@H](OC)C3)[C@H](C)[C@H](O)CC1=O)[C@H](C)C[C@@H]2OC (stereo partly specified) | 7.5 | 0.19 | 2.8 | 0.14 | 10 | 52 | Reduction (Rattus norvegicus [15]): 44% |
